In brackets after ≈: the same amount, converted by molar mass. Several values for one entry are separate records, joined by “and”; a condition that tells them apart may be missing. Equal entries are not always repeated. Where two headings read alike, the source gives them in different places.
Tests used:
C. albicans ATCC 90028 = test: Antifungal broth microdilution (EUCAST), standard strain; type: cell-based; conditions: Candida albicans
Procedure: The antifungal activity of the most representative compounds was evaluated versus one ATCC 90028 strain and 15 clinical isolates belonging to the most clinically relevant Candida spp. (C. albicans, C. tropicalis, and C. glabrata). All strains were stored at −80 °C in Sabouraud Broth (Oxoid LTD, Basingstoke, Hampshire, England) with 20% of glycerine until their use. The strains were grown on Sabouraud CAF agar (Thermo Fisher Scientific Waltham, MA, USA), and incubated for 24–48 h at 37 °C. […] The in vitro antifungal activity was determined by broth microdilution method with RPMI 1640 (Sigma-Aldrich. ST Louis, MO, USA) as recommended by EUCAST, and the E. Def 7.3, method document (http://www.eucast.org). […] Each plate included the following controls: (i) inoculum suspension (growth control), (ii) drug-free medium, (iii) medium with drug, and (iv) distilled water (used for the inoculum preparation). Fluconazole was used as a reference drug according to the EUCAST guidelines. The plates were incubated for 24 h at 37 °C, and then read with a plate reader at 530 nm. […] Three independent experiments were performed in triplicate.

Recombinant human iNOS = molecular target: T1, Recombinant human iNOS (Homo sapiens, UniProt P35228); test: iNOS inhibition, L-citrulline assay with fluorimetric (HPLC) detection; type: biochemical; conditions: for inhibition at 1 µM: read-out: iNOS % inhibition; for iNOS % inhibition: compounds at 1 µM, normalised to 1400 W (positive control, 100% inhibition at 1 μM), triplicate, mean ± SD
T1 construct: purchased Enzo Life Sciences, Inc
Procedure: The injection volume was 5 μL.
Recombinant human iNOS was purchased from Enzo Life Sciences, Inc. (New York, USA).

aromatase (CYP19A) = molecular target: T2, aromatase (CYP19A) (Homo sapiens, UniProt P11511); test: Aromatase inhibition, fluorimetric assay kit (Aromatase-CYP19A Inhibitor Screening kit, BioVision); type: biochemical; conditions: read-out: Aromatase % inhibition
T2 construct: purchased BioVision
T2 sequence (P11511 1-503): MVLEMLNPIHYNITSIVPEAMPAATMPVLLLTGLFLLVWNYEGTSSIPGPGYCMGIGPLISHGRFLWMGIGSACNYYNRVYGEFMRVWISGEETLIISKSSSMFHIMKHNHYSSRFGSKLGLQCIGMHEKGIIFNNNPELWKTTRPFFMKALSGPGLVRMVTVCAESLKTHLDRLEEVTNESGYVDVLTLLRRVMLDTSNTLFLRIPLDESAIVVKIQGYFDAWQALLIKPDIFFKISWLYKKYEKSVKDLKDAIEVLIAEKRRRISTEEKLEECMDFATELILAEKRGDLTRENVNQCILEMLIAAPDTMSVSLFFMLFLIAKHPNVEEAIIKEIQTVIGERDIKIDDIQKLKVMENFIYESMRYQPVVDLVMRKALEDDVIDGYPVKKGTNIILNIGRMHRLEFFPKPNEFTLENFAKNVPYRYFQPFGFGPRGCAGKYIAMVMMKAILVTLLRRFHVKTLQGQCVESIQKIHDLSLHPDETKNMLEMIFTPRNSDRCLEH
Procedure: The aromatase inhibitory activity of the novel compounds was determined using a commercial fluorimetric kit (Aromatase CYP19A Inhibitor Screening kit, BioVision, Milpitas, CA, USA). The assay utilises a fluorogenic aromatase substrate, that is converted into a highly fluorescent metabolite detected in the visible range (Ex/Em = 488/527 nm), ensuring a high signal-to-background ratio with little interference by autofluorescence.

aromatase = conditions: at 1 µM; cited from earlier work
[1] = test system: MCF-7 breast cancer cell line; test: Cell metabolic activity (MTT assay); type: cell-based; conditions: Homo sapiens, read-out: IC50 cell metabolic activity (MTT)
Procedure: (§1) Human breast cancer MCF-7 (HTB-22™) cells were purchased from ATCC® and maintained in Dulbecco’s Modified Eagle Medium (DMEM) high glucose supplemented with 10% of foetal bovine serum (FBS) and 1% of penicillin/streptomycin (all from Gibco-Thermofisher Scientific, MD, USA) at 37 °C and 5% CO2.
Cell metabolic activity of MCF-7 human breast cancer cells was assessed by MTT (3–(4,5-dimethylthiazol-2-yl)-2,5-diphenyltetrazolium bromide) test (Sigma Aldrich, Milan, Italy). Cells were seeded (0.1 × 10^4/well) in a 96-well tissue culture-treated plate (Falcon®, Corning Incorporated, NY, USA) and let them adhere for 24 h. Next, the cell monolayer was incubated in the presence of loading concentrations of compounds 2, 5 and 6 (0–400 µM) diluted in DMSO (final concentration 0.2%) for 24, 48 and 72 h. After the exposure time, cells were incubated with 100 μL/well of MTT (5 mg/mL) 1:10 with fresh growth medium (final concentration 0.5 mg/mL) for 4 h at 37 °C and 5% CO2. Finally, the MTT solution was removed and replaced with 100 µL/well of DMSO. Cells were incubated for an additional 20 min at 37 °C and 5% CO2 and afterward gently swirled for 10 min at room temperature. The optical density was measured at 540 nm by means of a spectrophotometer (Multiskan GO, Thermo Scientific, Monza, Italy). Results were expressed as the percentage of cells in the presence of vehicle (DMSO) set as 100% and each experiment was performed in triplicate (n = 3). Concentration-response curves and IC50 were fitted and calculated with the GraphPad Prism 5.0 (GraphPad Software, San Diego, CA, USA)[27].

MCF-7 cell line = test: Cytotoxicity test (lactate dehydrogenase release); type: cell-based, human; conditions: MCF-7, 24 h, DMSO control set as 1
Procedure: as §1
After 24 h, cell supernatants were collected from the MTT plate, centrifuged at 450 × g for 4 min and stored on ice. To quantify the cytotoxicity of loading concentrations of compounds 2, 5 and 6 (0–400 µM), the CytoTox 96® Non-Radioactive Cytotoxicity Assay (Promega Corporation, WI, USA) was performed. The CytoTox 96® Assay quantitatively measures lactate dehydrogenase (LDH), a stable cytosolic enzyme released upon cell lysis. The absorbance signal resulting from the conversion of a tetrazolium salt (iodonitrotetrazolium violet; INT) into a red formazan product was measured at 490 and 690 nm (background) with a spectrophotometer (Multiskan GO, Thermo Scientific, Monza, Italy). The results were normalised on MTT absorbances and expressed as fold increases on the LDH released by cultures in the presence of vehicle (DMSO) set as 1.

[2] = Chemical stability in aqueous media at 37 °C (HPLC); type: physicochemical
Procedure: Compounds 2 and 5 contain an ester linkage, therefore their chemical stability was evaluated. Phosphate buffer (pH = 7.4), HCl solution (pH = 2.0), NaOH solution (pH = 9.0) were adopted as media. […] Solutions were kept at 37 °C and monitored for 24 h.
A 0.01 M hydrochloric acid buffer (pH 2), as a non-enzymatic simulated gastric fluid (SGF), a 0.01 M phosphate buffer (pH 7.4) as non-enzymatic simulated intestinal fluid (SIF), and a 0.1 mM sodium hydroxide solution (pH 10) were used in this study. The reactions were initiated by adding 0.1 ml of compound stock solution (1 mg/mL in DMSO) to 1.9 ml aqueous buffer solution, in screw-capped vials at 37 ± 0.5 °C. Samples (5 µL) were withdrawn at appropriate intervals, i.e. after 5 min, 1 h, 2 h, 3 h, 4 h, 6 h, 8 h, and then after 24 h incubation time and analysed by HPLC.

[3] = ATCC90028, C. albicans ATCC 90028, 24 h, ≥50% growth inhibition, read-out: MIC

Row | SMILES | MIC (C. albicans ATCC 90028; [3]) [µg/mL] | inhibition at 1 µM (Recombinant human iNOS) [%] | inhibition at 1 µM (aromatase (CYP19A)) [%] | melting point [°C] | further results
1 | O=C(NCc1ccccc1)OC(Cn1ccnc1)c1ccccc1 (centres unmarked) [Compound 13a] | – | – | – | – | aromatase % inhibition (aromatase): 81%
2 | N#Cc1ccc(C(c2ccc(C#N)cc2)n2cncn2)cc1 [letrozole, reference compound] | – | – | 100 | – | –
3 | COc1cc(C)ccc1NC(=S)OC(Cc1ccccc1)Cn1ccnc1 (centres unmarked) [Compound 8, O-[1-benzyl-2-(1H-imidazol-1-yl)ethyl] (2-methoxy-4-methylphenyl)thiocarbamate] | – | 12 ± 0.1 | 54 ± 0.9 | 120 to 121 | –
4 | O=C(OC(Cc1ccccc1)Cn1ccnc1)c1cc([N+](=O)[O-])cc([N+](=O)[O-])c1 (centres unmarked) [Compound 5, 1-benzyl-2-(1H-imidazol-1-yl)ethyl 3,5-dinitrobenzoate] | – | 100 ± 1.7 | 82 ± 3.8 | 144 to 145 | MIC (C. albicans ATCC 90028; ATCC90028, 24 h): > 64 µg/mL; iNOS % inhibition (Recombinant human iNOS): complete enzyme inhibition; IC50 ([1]; MCF7, 24 h): 120 µM; IC50 ([1]; MCF7, 48 h): 82.5 µM; IC50 ([1]; MCF7, 72 h): 68.8 µM; LDH released, fold increase vs control (MCF-7 cell line; 10 µM (lowest concentration tested)): 1.91 folds; LDH released, fold increase vs control (MCF-7 cell line; concentrations after the IC50 (120 µM)): 6.25 folds and 7.50 folds; Chemical stability in acidic medium ([2]; HCl solution pH = 2.0, 37 °C, monitored for 24 h): stable; Chemical stability in neutral medium ([2]; Phosphate buffer pH = 7.4, 37 °C, monitored for 24 h): stable; half-life at 0.05 mg/mL ([2]; buffer, NaOH solution pH = 9.0, 37 °C, read-out: half-life of hydrolysis in basic medium): 39 min
5 | O=C(NCc1ccccc1)OC(Cc1ccccc1)Cn1ccnc1 (centres unmarked) [Compound 6, 1-benzyl-2-(1H-imidazol-1-yl)ethyl benzylcarbamate] | > 64 | 52 ± 0.7 | 72 ± 1.4 | – | IC50 ([1]; MCF7, MCF-7, 24 h exposure): > 400 µM
6 | O=C(OC(Cc1ccccc1)Cn1ccnc1)c1cccc(C(=O)c2ccccc2)c1 (centres unmarked) [Compound 4, 1-benzyl-2-(1H-imidazol-1-yl)ethyl 3-benzoylbenzoate] | > 64 | 47 ± 1.3 | 36 ± 1.2 | 86 to 87 | –
7 | COc1ccc(NC(=S)OC(Cc2ccccc2)Cn2ccnc2)c(OC)c1 (centres unmarked) [Compound 7, O-[1-benzyl-2-(1H-imidazol-1-yl)ethyl] (2,4-dimethoxyphenyl)thiocarbamate] | > 64 | 7 ± 0.08 | 15 ± 0.3 | – | –
8 | OC(Cc1ccccc1)Cn1ccnc1 (centres unmarked) [Compound 1, 1-(1H-imidazol-1-yl)-3-phenylpropan-2-ol] | – | – | – | – | iNOS % inhibition (Recombinant human iNOS): complete enzyme inhibition
9 | CC(=N)NCc1cccc(CN)c1 [1400 W, reference compound] | – | – | – | – | iNOS % inhibition (Recombinant human iNOS): 100%
10 | O=C(OC(Cc1ccccc1)Cn1ccnc1)c1ccc2ccccc2c1 (centres unmarked) [Compound 3, 1-benzyl-2-(1H-imidazol-1-yl)ethyl 2-naphthoate] | 64 (≈ 180 µM) | 0 | 13 ± 0.5 | 71 to 72 | –

Further lines, with some results ahead:

Row | MIC (C. albicans ATCC 90028; [3]) [µg/mL] | inhibition at 1 µM (Recombinant human iNOS) [%] | inhibition at 1 µM (aromatase (CYP19A)) [%] | melting point [°C] | SMILES | further results
11 | 0.25 (≈ 0.816 µM) | – | – | – | OC(Cn1cncn1)(Cn1cncn1)c1ccc(F)cc1F [Fluconazole, reference compound] | –
12 | – | 0 | 61 ± 2.1 | – | CC(=O)Nc1ccc(S(=O)(=O)N2CCCC(Cn3cncn3)C2)cc1 (centres unmarked) [Compound 20, N-(4-{[3-(1H-1,2,4-triazol-1-ylmethyl)piperidin-1-yl]sulphonyl}phenyl)acetamide] | –
13 | – | 18 ± 0.1 | 62 ± 2.8 | – | COc1ccc(S(=O)(=O)N2CCCC(Cn3cncn3)C2)c(OC)c1 (centres unmarked) [Compound 15, 1-[(2,4-dimethoxyphenyl)sulphonyl]-3-(1H-1,2,4-triazol-1-ylmethyl)piperidine] | –
14 | > 64 | 39 ± 0.2 | 25 ± 1.3 | 105 to 106 | Cc1ccc(S(=O)(=O)N2CCCC(Cn3cncn3)C2)cc1[N+](=O)[O-] (centres unmarked) [Compound 17, 1-[(4-methyl-3-nitrophenyl)sulphonyl]-3-(1H-1,2,4-triazol-1-ylmethyl)piperidine] | –
15 | – | 16 ± 0.7 | 48 ± 1.7 | 95 to 96 | N#Cc1ccc(S(=O)(=O)N2CCCC(Cn3cncn3)C2)cc1 (centres unmarked) [Compound 19, 4-{[3-(1H-1,2,4-triazol-1-ylmethyl)piperidin-1-yl]sulphonyl}benzonitrile] | –
16 | > 64 | 14 ± 0.2 | 55 ± 1.1 | 81 to 82 | N#Cc1ccc(S(=O)(=O)N2CCCC(Cn3cncn3)C2)c(Cl)c1 (centres unmarked) [Compound 18, 3-chloro-4-{[3-(1H-1,2,4-triazol-1-ylmethyl)piperidin-1-yl]sulphonyl}benzonitrile] | –
17 | – | 22 ± 0.5 | 32 ± 1.2 | – | Cc1ccc(S(=O)(=O)N2CCCC(Cn3cncn3)C2)cc1 (centres unmarked) [Compound 14, 1-[(4-methylphenyl)sulphonyl]-3-(1H-1,2,4-triazol-1-ylmethyl)piperidine] | –
18 | > 64 | 47 ± 0.3 | 63 ± 3.1 | – | O=[N+]([O-])c1cccc(S(=O)(=O)N2CCCC(Cn3cncn3)C2)c1 (centres unmarked) [Compound 16, 1-[(3-nitrophenyl)sulphonyl]-3-(1H-1,2,4-triazol-1-ylmethyl)piperidine] | –
19 | – | 27 ± 0.4 | 29 ± 1.5 | 72 to 73 | O=S(=O)(c1ccccc1)N1CCCC(Cn2cncn2)C1 (centres unmarked) [Compound 13, 1-(phenylsulfonyl)-3-(1H-1,2,4-triazol-1-ylmethyl)piperidine] | –

Reference: PMC8300937, “New azolyl-derivatives as multitargeting agents against breast cancer and fungal infections: synthesis, biological evaluation and docking study” (Journal of Enzyme Inhibition and Medicinal Chemistry, 2021)
